This assay deals with T1, Epac1-camps-His6 (Homo sapiens, UniProt O95398).
T1 construct: made in house; host or cells: E. coli BL21(DE3)-CodonPlus-RIL / BL21(DE3)-pLysS, pET11a
T1 sequence (O95398 199-357 limits assumed): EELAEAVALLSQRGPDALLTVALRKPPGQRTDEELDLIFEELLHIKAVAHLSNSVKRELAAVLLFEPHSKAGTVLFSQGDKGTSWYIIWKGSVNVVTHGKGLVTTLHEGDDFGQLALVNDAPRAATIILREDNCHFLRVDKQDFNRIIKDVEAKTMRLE
Put plainly: cell-free FRET assay with purified Epac1-camps-His6 in 96 multi-well plates (EYFP/ECFP ratio R/R0). The class given is biochemical. The conditions noted are these: 96 MWP, plate reader.

Method: To assess the functionality of the purified Epac1-camps-His6 protein, the protein was diluted to 0.7 μM and 90 μl of this solution was added to each well of a 96 multi well plate (MWP). Fluorescence emission in each well was measured in a plate reader. Excitation was at 430 nm and emission was recorded at 475 nm (ECFP) and 530 nm (EYFP). […] The final volume in each well was 100 μl, and final concentrations of cyclic nucleotides ranged from 10^− 9 - 10^− 4 M. Incubation of the sensor protein with its ligands was for 30 min. at room temperature. […] Normalized data were plotted against cyclic nucleotide concentrations and EC50 values were calculated. […] Mean values with standard deviations were obtained from four-fold determinations for each cyclic nucleotide.
Purified Epac1-camps-His6 protein was diluted to a concentration of 0.7 μM in IS buffer and 90 μl of the sample was added to each well of a 96 multi well plate. Excitation was at 430 nm and emission was recorded at 475 nm (ECFP) and 530 nm (EYFP). […] The final volume was 100 μl and final concentrations of cyclic nucleotides ranged from 10^− 9 - 10^− 4 M. The EYFP/ECFP ratio (R) for each well was calculated and normalized to the ratio of the basal fluorescence in the absence of cyclic nucleotides (R0). […] EC50 values were calculated with a four-parameter nonlinear regression using GraphPad Prism v5.04 […]

As for `Nc1nc2c(ncn2[C@@H]2O[C@@H]3COP(=O)(O)O[C@H]3[C@H]2O)c(=O)[nH]1` [cGMP, cyclic guanosine 3′,5′-monophosphate], the EC50 is 7.8 µM.

Broadly, the EC50 is the midpoint of the concentration-response curve.
